Columns and labels:
A549 = assay: Cytotoxicity against human A549 cells; assay type: functional, cell-based
DU-145 = assay: Cytotoxicity against human DU145 cells; assay type: functional, cell-based
KB = assay: Cytotoxicity against human KB cells; assay type: functional, cell-based
[1] = Cytotoxicity against human KBVIN cells; assay type: functional, cell-based
[2] = Cytotoxicity against human Hep3B cells; assay type: functional, cell-based, Hep 3B2
HepG2 = assay: Cytotoxicity against human HepG2 cells; assay type: functional, cell-based
[3] = Antiinflammatory activity in human neutrophils assessed as inhibition of fMLP/CB-induced elastase release; assay type: functional, cell-based; conditions: Neutrophil
[4] = Antiinflammatory activity in human neutrophils assessed as inhibition of fMLP/CB-indcued superoxide anion production; assay type: functional, cell-based; conditions: Neutrophil
Neutrophil = assay: Ratio of LY294002 IC50 to compound IC50 for inhibition of fMLP/CB-indcued elastase release in human neutrophils; assay type: functional

SMILES	IC50 (A549)	IC50 (DU-145)	IC50 (KB)	IC50 [1]	IC50 [2] [µM]	IC50 (HepG2)	IC50 [3] [µM]	IC50 [4] [µM]	Ratio IC50 (Neutrophil)
COc1cc(O)c(C(=O)c2ccccc2)cc1O [CEAROIN]	> 10 µg/mL	> 10 µg/mL	35.3 µM	32.2 µM					
COc1cc2oc(=O)cc(-c3ccccc3)c2cc1O [DALBERGIN]	> 10 µg/mL	> 10 µg/mL	> 10 µg/mL	> 10 µg/mL					
COc1cccc2c1C(=O)c1c(O)c3c(c(O)c1C2=O)C[C@@](O)(C(=O)CO)C[C@@H]3O[C@H]1C[C@H](N)[C@H](O)[C@H](C)O1 [DOXORUBICIN]					1.57	1.29 µM			
O=c1cc(N2CCOCC2)oc2c(-c3ccccc3)cccc12 [LY-294002]							6.48	3.84	
COC1=CC(=O)c2cc(-c3ccc(OC)c(O)c3)c3cc(O)c(OC)cc3c2C1=O [PTEROLINUS K]	> 10 µg/mL	> 10 µg/mL	> 10 µg/mL	> 10 µg/mL	10.9	> 10 µg/mL	4.24	0.99	
COc1ccc(C(=O)/C=C/c2cc(O)c(OC)cc2O)cc1O [PTEROLINUS L]	21.9 µM	29.8 µM	17.2 µM	22.4 µM	20.9	20.4 µM	0.95		6

— ChEMBL document CHEMBL1828505, “Bioactive components from the heartwood of Pterocarpus santalinus” (Bioorg Med Chem Lett, 2011)
